Here are results for 56 compounds from PubChem BioAssay AID179 (DTP/NCI, 2004).

The assay deals with CEM cells HIV-1 protection, formazan growth assay. Put plainly: NCI AIDS Antiviral Assay. The note with it: for IC50: measured here: growth of uninfected CEM cells. As to the method: The ability of compounds to protect human CEM cells from HIV-1 infection is measured as a screen for new compounds capable of inhibiting the HIV virus. Five concentrations of drug were tested on uninfected and infected cells and cell growth was measured using a soluble formazan assay. […] Compounds that provided at least 50% protection were retested. Compounds that provided at least 50% protection on retest were listed as moderately active. Compounds that reproducibly provided 100% protection were listed as confirmed active. […] Note that the inability to provide protection could be due to toxicity.

Active and inactive are the calls of the source.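 The calls were made as follows: active = compounds giving half or more protection of infected cells from virus-caused growth loss, again on retest; inactive = the rest.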

For the compound `O=C(Nc1cccc(F)c1)c1c(O)[nH]c(=S)[nH]c1=O`, the EC50 (in general, the concentration at which the effect is half-maximal) was > 5.13 µM and the IC50 (in general, the concentration at which inhibition is half-maximal) was > 5.13 µM.
As to `COc1ccc(C2=Nn3c(nc4sc5c(c4c3=O)CCCC5)SC2)cc1`, the EC50 is > 200 µM and the half-maximal inhibitory concentration (IC50) was > 200 µM.
`CC(O)(C(=O)N(O)c1ccc(Cl)cc1)c1ccc(Cl)cc1` (stereo not given): the EC50 is > 20 µM and the IC50 worked out at 17.8 µM.
For `O=c1[nH]c2ccccc2c(=O)n1/N=C\c1ccccc1O`, the EC50 is > 200 µM and the IC50 was > 200 µM.
On to `CCOC(=O)CSc1cc(C)c2c(N)c(C(=O)OCC)sc2n1`, for which the EC50 was > 72.4 µM and the half-inhibitory concentration (IC50) was > 72.4 µM.
In the case of `CO/C=C(/C#N)S(=O)(=O)/C(C#N)=C/OC`, the EC50 is > 200 µM and the IC50 is > 200 µM.
As for `O=C1NC(=S)N/C1=C\c1cc2c(=O)c3ccccc3sc2s1`, the EC50 was 75.9 µM and the IC50 came to 81.3 µM.
For the compound `COc1ccc2c(c1)Oc1cc(O)ccc1[C@@H]2c1ccccc1C(=O)NC(C)c1ccccc1` (stereo not given in full), the EC50 is > 15.8 µM and the IC50 is 14.5 µM.
Take `Cc1cc(NS(=O)(=O)c2ccc(NC(=O)c3ccc4nc5ccccc5c(Nc5ccc(S(N)(=O)=O)cc5)c4c3)cc2)no1`: the EC50 was > 81.3 µM and the IC50 is 29.5 µM.
On to `O=C1CC(=O)NC(=NN2C(=O)CSC2C(=O)c2ccco2)N1` (stereo not given), for which the EC50 is 35.5 µM and the IC50 amounted to 575 µM.
The like results for `Cc1ccc(C[N+](C)(C)N)cc1C` were, in that order, > 200 µM and > 200 µM.
Regarding `CCCCCCCCC1=C(OC)C(=O)c2ccc(C)nc2C1=O`, the result was inactive.
Regarding `Cc1c(C)c(C)c(-n2[nH]c(=O)n(C)c2=O)c(C)c1C`, the EC50 was > 200 µM and the IC50 is > 200 µM.
For the compound `CCCC(=O)[O-].CCCC(=O)[O-].NCCN.NCCN.[Co+3].[O-][Cl+3]([O-])([O-])[O-]`, the outcome was inactive.
Take `O=C(CC1=Nc2nnc(CCCCCCCc3nnc4n3C(=O)C(CC(=O)c3ccccc3)=N4)n2C1=O)c1ccccc1`: the EC50 is > 1.82 µM and the half-inhibitory concentration (IC50) was > 1.82 µM.
As for `C=CCC1CCN(C=C)C1=O` (stereo not given), the EC50 is > 1660 µM and the IC50 was found to be 1580 µM.
Regarding `CC1=CC(=O)CCC2(C)C1CC[C@@H]2OC=O` (stereo not given in full), the outcome was inactive.
Turning to `NC(CS)=NCC1C2CC3CC(C2)CC1C3` (stereo not given), the EC50 is > 200 µM and the IC50 was found to be 33.1 µM.
On to `Cc1ccc(Nc2cc(=O)[nH]c(=S)[nH]2)cc1`, for which the EC50 is > 200 µM and the 50% inhibitory concentration (IC50) is > 200 µM.
As to `O=C(OCc1ccccc1)/C(c1ccccc1)=[N+]1/C(=S)Nc2ccc([N+](=O)[O-])cc21`, the EC50 is > 200 µM and the IC50 amounted to 105 µM.
As for `CN1C(=O)C2CCCC(=O)N2c2cccnc21` (stereo not given), the EC50 was > 200 µM and the IC50 was > 200 µM.
Take `O=S1(=O)CCCCS1`: the EC50 is > 200 µM and the 50% inhibitory concentration (IC50) was 5.37 µM.
Take `O=C1c2ccccc2C(=O)c2c1ccc1conc21`: the outcome was inactive.
With `O=C(C[n+]1ccc2ccccc2c1)c1ccc(O)c(O)c1`, the outcome was inactive.
As for `Cc1ccc(C2OC(COCc3ccc(Cl)cc3)C(OCc3ccc(Cl)cc3)C2O)cc1` (stereo not given), the result was inactive.
`CCOC(=O)c1ccc(NC(=O)O/N=C(/Cl)C(C)C)cc1`: the EC50 was > 200 µM and the IC50 was 10.5 µM.
For `CC(C)(C)[C@H]1CO[C@]2(C)[C@@H]3C[C@@H]3C(=O)N12`, the result was inactive.
As to `COc1ccc2oc(=N)c(C(=O)NCc3ccccc3)cc2c1`, the EC50 is > 200 µM and the IC50 stood at 17.8 µM.
With `COc1ccccc1C1(C)SCc2nc3ccccc3n21` (stereo not given), the EC50 is > 87.1 µM and the half-maximal inhibitory concentration (IC50) is 79.4 µM.
`CCOC(=O)/C(C#N)=C/c1ccc2c(c1)CC1(C2)Cc2cc(CC)c(C(C)O)cc2C1` (stereo not given): the EC50 was > 200 µM and the IC50 is 3.63 µM.
For `Cc1noc(NS(=O)(=O)c2ccc(NC(=S)/N=C/c3c(O)[nH]c(=O)[nH]c3=O)cc2)c1C`, the EC50 was > 200 µM and the IC50 is > 200 µM.
Regarding `C[C@@H]1CC[C@]2(C)C3(C)CC[C@]2(OC3=O)[C@@]12CC(c1ccoc1)OC2=O` (stereo not given in full), the EC50 was > 200 µM and the IC50 was found to be 33.9 µM.
On to `CN1CCCc2nc3ccccc3n2C1`, for which the EC50 was > 36.3 µM and the 50% inhibitory concentration (IC50) is > 36.3 µM.
As for `COc1ccc2nc(NC(=O)C(=O)C(C#N)c3ccc(Cl)c(Cl)c3)sc2c1` (stereo not given), the outcome was inactive.
Regarding `O=C(CC(=O)c1ccccc1NC1=Cc2ccccc2C(=O)C1=O)C(=O)NC1=C(Cl)C(=O)c2ccccc2C1=O`, the EC50 is > 18.2 µM and the IC50 worked out at 3.24 µM.
As to `N#CN/C(N)=N/C/N=C(\N)NC#N`, the EC50 is > 501 µM and the half-inhibitory concentration (IC50) was > 501 µM.
With `CC(C)NC(=O)OCc1c(COC(=O)NC(C)C)c(-c2ccc(Cl)c(Cl)c2)n2c1CS(=O)(=O)C2`, the EC50 was > 200 µM and the IC50 was 42.7 µM.
Turning to `OC1CN2CC[C@H](O)C2C(O)[C@@H]1O` (stereo not given in full), the EC50 was 61.7 µM and the IC50 was 1320 µM.
With `CC1=C(CCc2ccoc2)[C@@]2(C)CCCC(C)(C)C2C(=O)[C@@H]1O[C@H]1C(=O)C2C(C)(C)CCC[C@]2(C)[C@](O)(CCc2ccoc2)C1C` (stereo not given in full), the EC50 was > 4.27 µM and the concentration for half-maximal inhibition (IC50) was > 4.27 µM.
On to `O=[N+]([O-])O`, for which the EC50 was > 200 µM and the IC50 is > 200 µM.
As for `COc1cccc(N)c1N`, the EC50 is > 1170 µM and the concentration for half-maximal inhibition (IC50) turned out to be 18.2 µM.
In the case of `CC(=NNC(=S)Nc1ccccc1C)c1cccc(C(C)=NNC(=S)Nc2ccccc2C)n1`, the EC50 was > 200 µM and the half-maximal inhibitory concentration (IC50) was 110 µM.
In the case of `N#Cc1nc(-c2cccc(-c3nc(C#N)c(N)o3)n2)oc1N`, the result was inactive.
Consider `CS/C(=C(\S)c1ccccc1)c1ccccc1`, for which the outcome was inactive.
Regarding `Cc1ccc(C)n1C1CCOC1=O` (stereo not given), the outcome was inactive.
As to `CCCCCCCCCCCCCCCCCCN1C(=O)c2ccccc2[Se]1=O` (stereo not given), the EC50 is > 0.813 µM and the IC50 is > 0.813 µM.
Take `Oc1ccc(C2(c3ccc(O)cc3)CCCC2)cc1`: the EC50 is > 200 µM and the IC50 turned out to be 30.9 µM.
`COc1ccc(Cc2nnc(C)c3c(C)[nH]nc23)cc1`: the EC50 was > 525 µM and the concentration for half-maximal inhibition (IC50) worked out at 33.9 µM.
As for `O=C(/C=C/c1ccc(F)c(F)c1)OCCc1ccccc1`, the EC50 is > 200 µM and the IC50 worked out at 38.9 µM.
In the case of `CCOC(=O)/C(=C\c1cccc(C#N)c1)C(C)=O`, the EC50 is > 389 µM and the IC50 amounted to 28.2 µM.
Consider `CCN(CC)C(=S)SCC(=O)Nc1nc2c(s1)CCCC2`, for which the EC50 was > 20.9 µM and the IC50 was > 20.9 µM.
As for `CN(C)CC1(C)Cc2cc(Cl)sc2C1=O` (stereo not given), the EC50 was > 200 µM and the IC50 is > 200 µM.
Regarding `CCc1c(C)[nH]c2c1/C(=N/N=C1\CCCc3[nH]c(C)c(CC)c31)CCC2`, the outcome was inactive.
`Cc1ccc(NC(=O)CC/C(CC(=O)C(C)(C)C)=N/NC(=O)C[N+](C)(C)C)cc1C`: the EC50 was > 209 µM and the IC50 was > 209 µM.
As to `CC(C)C1COC(C(C)(C)C2=N[C@@H](C(C)C)CO2)=N1` (stereo not given in full), the EC50 was > 251 µM and the IC50 is 135 µM.
For `CCOC(=O)C(Cc1ccccc1)NC(=O)c1ccc(N=NN(C)C)cc1` (stereo not given), the EC50 was > 51.3 µM and the IC50 was > 51.3 µM.
